Counter-ions that a name gives are not always drawn. Like-named read-outs stand apart in the source and are kept apart here.
Key:
λB promoter DNA sequence = test: SPR binding of compounds to immobilized λB promoter DNA; design: species or system murine; conditions: biosensor-SPR, 1:1 complex
Procedure: FIG. 8A-8C depicts (A) DB2313 synthesis (B-C) Representative SPR sensorgrams for compounds binding to the immobilized λB promoter DNA sequence: (B) DB2313 (KD=7±2 nM) and (C) DB1976 (KD=5±2 nM) as previously described (Munde et al., 2014). The solid black lines are best fit values for global kinetic fitting of the results with a single binding site function. Similar experiments with DB2115 gave a KD=1±2 nM. The plots are for the SPR signal (RU) versus time from injection of the compound over the sensorchip. From 0 to 180 seconds, compound is being injected (association) and after that only buffer flows over the chip. (B) From top to bottom: 10, 30, 40 nM. (C) From top to bottom: 5, 10, 15 nM.
To test whether these heterocyclic diamidines targeted cognate DNA binding sites for PU.1, we assessed binding to the λB motif by biosensor-surface plasmon resonance (SPR). Duplex DNA harboring the λB motif was immobilized on a streptavidin functionalized sensor chip with a dextran surface as described. The DNA was 5′-end labeled with biotin and captured on the sensor chip. Based on the known strong AT selectivity of these heterocyclic diamidines, they are expected to bind to the AT rich λB promoter sequence at the 5′ side of the 5′-GGAA-3′ PU.1 conserved recognition sequence. Sensorgrams obtained from the compounds-DNA association and disassociation reactions were used to determine equilibrium dissociation constants. The KD values indicate strong binding by all three compounds to form a 1:1 complex, and a binding K^D of 1±2 nM for DB2115 and 4-7 nM for DB1976 and DB2313 with the λB promoter.

[1] = system: PU.1 URE−/− AML cell line; test: Cell viability/growth of PU.1 URE−/− AML cells; format: cell-based, murine; conditions: Mus musculus
Procedure: FIG. 2A-2F. PU.1 inhibition decreases cell growth and increases apoptosis of PU.1^1″ leukemic cells. (A) Chemical structures of heterocyclic diamidines DB1976, DB2115 and DB2313 used in this study. (B) Relative cell viability of URE−/− cells and BAF3 cells after treatment with increasing concentrations of vehicle or small molecules. Cell viability was assessed after 48 h. Data represent means of technical triplicate from one representative experiment; fold change compared to Vehicle is shown. (C) Cell proliferation assay of URE−/− after treatment with DB1976 (n=5), DB2115 (n=3), DB2313 (n=3), of MOLM13 cells (n=3), and THP1 cells (n=3). Cell counting was performed every 24 h during 4 days. Data represent means±SD of technical triplicate from one representative experiment. Forward strand: SEQ ID NO:3, and Reverse strand: SEQ ID NO:4; derived from the λB motif from the murine Ig lambda 2-4 enhancer, a known native PU.1-dependent gene and specific binding site for PU.1. (D) Clonogenic capacities of URE−/− cells after treatment with DB1976 (n=5), DB2115 (n=3) and DB2313 (n=4) in the first plating, and after serial replatings (n=3). Data represent means±SD of technical triplicate from one representative experiment. (E) Apoptotic cells (Annexin-V+Dapi−) fraction in URE−/− cells after 48 h of treatment with DB1976 (n=6), DB2115 (n=6) and DB2313 (n=3). Data represent the means±SD of independent experiments; fold change compared to Vehicle is shown. *P<0.05, **P<0.01, ***P<0.001, ****P<0.0001 (F) Dose dependent inhibitor of PU.1-dependent transactivation.
To determine if our PU.1 inhibitors have an effect on PU.1^low-induced AML cells, we treated the PU.1 URE^−/− AML cell line with compounds at different concentrations. Treatment with the drugs led to a profound decrease in growth of PU.1 URE^−/− AML cells after 48 h whereas it had only minimal or no effects on control cells with normal PU.1 levels (BaF3), even at very high doses (FIG. 3A). […] Similar to our observations with PU.1-directed shRNAs, treatment with pharmacological PU.1 inhibitors led to a significant 1.6-, 2- and 3.5-fold increase of apoptotic cells with DB1976, DB2115 and DB2313, respectively, in murine PU.1 URE^−/− AML cells (FIG. 3C), and similar effects in human MOLM13 cells.

primary human AML cells = test: Primary human AML mononuclear cells in semi-solid media (viable cells, colonies, apoptosis); format: cell-based; conditions: for mean decrease in number of viable cells / mean decrease of clonogenic capacity: in comparison to vehicle; for average increase of apoptotic cell fraction: vs vehicle
Procedure: FIG. 4A-4G. PU.1 inhibition decreases cell growth and increases apoptosis of primary human AML cells. (A-C) Transduced GFP+ human primary mononuclear AML cells were plated in semi-solid media (150 000 cells per ml of methyl); colony number, number of viable cells and apoptotic cells were assessed after 14 days of culture. (A, B) Clonogenic capacities and number of viable cells after transduction with shPU.1_1 and shPU.1_2 (n=7). (C) Apoptotic cells (Annexin-V+Dapi−) fraction after transduction with shPU.1_1 and shPU.1_2 (n=7). (D-F) Human primary mononuclear AML cells were plated in semi-solid media (150 000 cells per ml of methyl) containing the PU.1 inhibitors DB1976, DB2115 and DB2313; colony number, number of viable cells and apoptotic cells were assessed after 14 days of culture. (D-E) Clonogenic capacities (n=9) and number of viable cells (n=8) after treatment. (F) Apoptotic cells (Annexin-V+Dapi−) fraction after treatment (n=8). […] (A-G) Data represent means±SD, each AML sample is represented by an individual dot. Fold change compared to shCtrl or Vehicle is shown.
To determine whether PU.1 inhibition has an effect on primary cells from AML patients, we seeded mononuclear cells from AML patients in semi-solid media for 2 weeks and assessed the number of colonies, the number of viable cells and the proportion of apoptotic cells. […] At the same time, the proportion of apoptotic cells increased on average of 2-fold upon knockdown of PU.1 in primary human AML cells with the more efficient shRNA (shPU.1_2) (FIG. 1F).
We also explored the effect of the small molecule PU.1 inhibitors on primary human AML cells, and treated 11 samples from AML patients with PU.1 inhibitors. PU.1 inhibitors led to significant decreases in the number of viable cells (mean decrease: 81% for DB1976, 68% for DB2115, 72% for DB2313) (FIG. 3E), and clonogenic capacity (mean decrease of 36% for DB1976, 45% for DB2115, 60% for DB23313), in comparison to vehicle (FIG. 3F). The apoptotic cell fraction increased on average by 1.5-fold with DB1976, 2.2-fold with DB2115 and 2.5-fold with DB2313 (FIG. 3G).

[2] = after 48 h, read-out: IC50 in PU.1 URE−/− AML

Structure (SMILES) | Kd (λB promoter DNA sequence) [nM] | IC50 [1, 2] [nM] | mean decrease in number of viable cells (primary human AML cells) [%] | mean decrease of clonogenic capacity (primary human AML cells) [%] | average increase of apoptotic cell fraction (primary human AML cells) [fold] | IC50 ([1]; read-out: IC50 URE−/−) [nM]
N=C(N)c1ccc2nc(-c3ccc(-c4nc5ccc(C(=N)N)cc5[nH]4)[se]3)[nH]c2c1 [DB1976] | 5 ± 2 | 25000 | 81 | 36 | 1.5 | 
N=C(N)c1ccc2nc(-c3ccc(OCCCCOc4ccc(-c5nc6ccc(C(=N)N)cc6[nH]5)cc4)cc3)[nH]c2c1 [DB2115] | 1 ± 2 | 700 | 68 | 45 | 2.2 | 
CC(C)NC(=N)c1ccc2nc(-c3ccc(OCc4cccc(COc5ccc(-c6nc7ccc(C(=N)NC(C)C)cc7[nH]6)cc5)c4F)cc3)[nH]c2c1 [DB2313, 3-Bis{4[4(5)-N-isopropylamidinobenzimidazolyl]phenoxymethyl]}-2-fluorobenzene tetrahydrochloride] | 7 ± 2 | 330 | 72 | 60 | 2.5 | 330

— US10774049B2, “PU.1 inhibitors” (Albert Einstein College of Medicine, priority 2016, dated 2020)
